This is an account of results in patent US11884686B2, “Chelate compounds” (priority 2016, dated 2024).

Data set [1] can be described thus: Water solubility of Mn(II) based chelates. It is filed as physicochemical. As to conditions: thermodynamic from solid, 25° C. The protocol:
The solubility of Mn(II) based chelates was confirmed by dissolving purified Mn(II) based chelates ( 99% purity) in a prescribed volume of solvent (Millipore water 18.2 MegaOhm from a Millipore BioCell Benchtop unit) to provide a solution of given volume. Solutions were visually inspected for homogeneity and filtered through a 0.45 um PTFE filter membrane if necessary. The assessment was carried out at 25° C. Final sample concentrations were confirmed by determination of final Mn(II) concentration via ICP-MS (Spectro Arcos FHS[…] 10003910 or S/N 12006120).

A short description of data set [2]: In vitro proton relaxivity in human serum. As to conditions: 60 MHz, 40° C. The format is physicochemical. The protocol:
Both the longitudinal and transverse relaxation times were measured in human serum (BioreclamationIVT, Cat #HMSRM-M) to reflect the efficiency of the Mn(II) based chelates in an environment close to physiological. The relaxivity assessment was carried out at a concentration ranging from 5 to 0 mM Mn(II), at 40° C. using a Minispec Mq benchtop NMR relaxometer (Bruker Instruments, Rheinstetten, Germany) operating at 60 MHz (1.4 T) with an inversion recovery pulse sequence. The longitudinal and transverse relaxivities of the complexes (e.g., r1 and r2 respectively) were calculated by plotting the reciprocal of their relaxation time versus the manganese concentration as determined via ICP-MS (Spectro Arcos FHS12, S/N 10003910 or S/N 12006120) for each Mn(II) based chelates. The dependence of T1 by B0 (i.e., magnetic field) applied was assessed via the acquisition of ^1H Nuclear Magnetic Relaxation Dispersion (NMRD) profiles. A dedicated Stelar SMARTracer Fast Field Cycling relaxometer (0.01-10 MHz) and a Bruker WP80 NMR electromagnet adapted to variable field measurements (20-80 MHz) and controlled by a SMARTracer PC-NMR console was used to record the ^1H NMRD profiles over an extended range of Larmor Frequencies (from 0.01 to 80 MHz). The temperature was monitored by a VTC91 temperature control unit and maintained by a gas flow. The temperature was determined by previous calibration with a Pt resistance temperature probe. High field relaxivities were measured on a Bruker AVANCE NMR spectrometer at 400 MHz. A total of 25 data points per NMRD profile were recorded at each temperature, pH 6.9 and with a manganese concentration in the samples of 6.99, 6.78 and 4.45 mM for the prior art Mn Chelate, Mn Chelate 4 and Mn Chelate 3, respectively. The concentration of Mn(II) in all samples was verified by Bulk Magnetic Susceptibility (BMS) measurements. Relaxivity was computed by subtracting the relaxation rate of the medium (distilled water) from the relaxation rate of the Mn(II) complex solution at each field strength and dividing the difference by the manganese concentration verified by BMS measurements.
The linear fit (R2>0.99 for all compounds examined) of 1/T1 and 1/T2 as a function of Mn concentration generated the r1 or r2 values reported in Table 4 for human serum.

As for `CN1CCN2Cc3cccc(n3)CN(CC1)C(CCC(=O)NC[C@H](O)[C@@H](O)[C@H](O)[C@H](O)CO)C(=O)[O][Mn][O]C(=O)C2CCC(=O)NC[C@H](O)[C@@H](O)[C@H](O)[C@H](O)CO` (stereo partly shown) [Mn Chelate 5], in data set [1], the solubility was greater than 500 mM. For the same molecule, the “r1 (longitudinal relaxivity)” value in data set [2] worked out at 5.2 mM⁻¹ s⁻¹.

For `CN1CCN2Cc3cccc(n3)CN(CC1)C(CC(=O)NC[C@H](O)[C@@H](O)[C@H](O)[C@H](O)CO)C(=O)[O][Mn][O]C(=O)C2CC(=O)NC[C@H](O)[C@@H](O)[C@H](O)[C@H](O)CO` (stereo partly shown) [Mn Chelate 5a], the solubility in data set [1] was greater than 500 mM. Further, the “r1 (longitudinal relaxivity)” value in data set [2] amounted to 3.7 mM⁻¹ s⁻¹.

`CN1CCN2Cc3cccc(n3)CN(CC1)C(CCC(=O)Nc1cc(C(=O)NCC(O)CO)cc(C(=O)NCC(O)CO)c1)C(=O)[O][Mn][O]C(=O)C2CCC(=O)Nc1cc(C(=O)NCC(O)CO)cc(C(=O)NCC(O)CO)c1` (stereo not shown) [Mn Chelate 7] returned a solubility in data set [1] greater than 500 mM. In addition, the “r1 (longitudinal relaxivity)” value in data set [2] amounted to 6.0 mM⁻¹ s⁻¹.

As to `CN1CCN2Cc3cccc(n3)CN(CC1)C(CCC(=O)N(CCO)CCO)C(=O)[O][Mn][O]C(=O)C2CCC(=O)N(CCO)CCO` (stereo not shown) [Mn Chelate 9], in data set [1], the solubility was greater than 500 mM. Also, the “r1 (longitudinal relaxivity)” value in data set [2] stood at 4.3 mM⁻¹ s⁻¹.

`CN1CCN2Cc3cccc(n3)CN(CC1)C(CCC(=O)NCC(O)CO)C(=O)[O][Mn][O]C(=O)C2CCC(=O)NCC(O)CO` (stereo not shown) [Mn Chelate 10]: in data set [1], the solubility is greater than 500 mM. In addition, the “r1 (longitudinal relaxivity)” value in data set [2] is 4.3 mM⁻¹ s⁻¹.

`CN1CCN2Cc3cccc(n3)CN(CC1)C(CC(=O)NCC(O)CO)C(=O)[O][Mn][O]C(=O)C2CC(=O)NCC(O)CO` (stereo not shown) [Mn Chelate 10a]: the solubility in data set [1] is greater than 500 mM. The “r1 (longitudinal relaxivity)” value in data set [2] is 3.8 mM⁻¹ s⁻¹.

Consider `CN1CCN2Cc3cccc(n3)CN(CC1)C(CCC(=O)NC(CO)(CO)CO)C(=O)[O][Mn][O]C(=O)C2CCC(=O)NC(CO)(CO)CO` (stereo not shown) [Mn Chelate 11], for which, in data set [2], the “r1 (longitudinal relaxivity)” value was 4.6 mM⁻¹ s⁻¹.

Usually solubility stands for the concentration that dissolves in the medium under given conditions.
